Our source for the melting point and mortality values is patent publication US20230101273A1, “MESOIONIC INSECTICIDES” (FMC Corporation, priority 2020, published 2023).

Structures can show the parent of a compound that is named as a salt.

The subject of data set [1] is corn planthopper (Peregrinus maidis (Ashmead)). In words: Test C: control of corn planthopper through contact and/or systemic means. Particulars: 144 h, sprayed at 50 ppm, 6 days, nymphs on corn plant. It is filed as in vivo. The method, then: (§1) Test compounds were formulated using a solution containing 10% acetone, 90% water and 300 ppm Activator 900 non-ionic surfactant (Loveland Products, Loveland, Colo., USA). The formulated compounds were applied in 1 mL of liquid through an atomizer nozzle positioned 1.27 cm (0.5 inches) above the top of each test unit. Test compounds were sprayed at the rates indicated, and each test was replicated three times.
For evaluating control of corn planthopper (Peregrinus maidis (Ashmead)) through contact and/or systemic means, the test unit consisted of a small open container with a 3-4-day-old corn (maize) plant inside. White sand was added to the top of the soil prior to application of the test compound.
Test compounds were formulated and sprayed at 50 ppm. After spraying of the formulated test compound, the test units were allowed to dry for 1 h before they were post-infested with ˜15-20 nymphs (18-to-21-day-old). A black, screened cap was placed on the top of each test unit, and the test units were held for 6 days in a growth chamber at 22-24° C. and 50-70% relative humidity. Each test unit was then visually assessed for insect mortality.

The test system of data set [2] is green peach aphid (Myzus persicae (Sulzer)). In words: Test E: control of green peach aphid through contact and/or systemic means. It counts as in vivo. Particulars: 144 h, sprayed at 50 ppm, 6 days, radish plant. The method, then:
as §1
For evaluating control of green peach aphid (Myzus persicae (Sulzer)) through contact and/or systemic means, the test unit consisted of a small open container with a 12-15-day-old radish plant inside. This was pre-infested by placing on a leaf of the test plant 30-40 aphids on a piece of leaf excised from a culture plant (cut-leaf method). The aphids moved onto the test plant as the leaf piece desiccated. After pre-infestation, the soil of the test unit was covered with a layer of sand.
Test compounds were formulated and sprayed at 50 ppm. After spraying of the formulated test compound, each test unit was allowed to dry for 1 hour and then a black, screened cap was placed on top. The test units were held for 6 days in a growth chamber at 19-21° C. and 50-70% relative humidity. Each test unit was then visually assessed for insect mortality.

In data set [3] the test system is cotton melon aphid (Aphis gossypii (Glover)). Briefly: Test F: control of cotton melon aphid through contact and/or systemic means. It counts as in vivo. Particulars: 144 h, sprayed at 50 ppm, 6 days, okra plant. The method, then:
as §1
[…] This was pre-infested with 30-40 insects on a piece of leaf according to the cut-leaf method, and the soil of the test unit was covered with a layer of sand.
Test compounds were formulated and sprayed at 50 ppm. After spraying, the test units were maintained in a growth chamber for 6 days at 19° C. and 70% relative humidity. Each test unit was then visually assessed for insect mortality.

For data set [4], the system named is potato leafhopper (Empoasca fabae (Harris)). Briefly: Test D: control of potato leafhopper through contact and/or systemic means. It counts as in vivo. Particulars: 144 h, sprayed at 50 ppm, 6 days, adults on Soleil bean plant. How it is done:
as §1
For evaluating control of potato leafhopper (Empoasca fabae (Harris)) through contact and/or systemic means, the test unit consisted of a small open container with a 5-6-day-old Soleil bean plant (primary leaves emerged) inside. White sand was added to the top of the soil, and one of the primary leaves was excised prior to application of the test compound.
Test compounds were formulated and sprayed at 50 ppm. After spraying of the formulated test compound, the test units were allowed to dry for 1 hour before they were post-infested with 5 potato leafhoppers (18-to-21-day-old adults). A black, screened cap was placed on the top of the test unit, and the test units were held for 6 days in a growth chamber at 20° C. and 70% relative humidity. Each test unit was then visually assessed for insect mortality.

The melting point is the temperature of the solid-liquid transition. On to `CCOc1cc(C#CC(C)C)cc(-c2c([O-])[n+](Cc3cnc(Cl)s3)c3c(C)cccn3c2=O)c1` (as salt: salt) [Compound 54, 1-[(2-chloro-5-thiazolyl)methyl]-3-[3-ethoxy-5-(3-methyl-1-butyn-1-yl)phenyl]-2-hydroxy-9-methyl-4-oxo-4H-pyrido[1,2-a]pyrimidinium inner salt], for which the melting point is 90 to 97 °C.
By mortality is commonly meant the share of the test organisms that died. Low readings indicate a weak lethal effect, high ones a strong lethal effect. Turning to `CCC#Cc1cc(Cl)cc(-c2c([O-])[n+](Cc3cnc(Cl)s3)c3c(C)cccn3c2=O)c1` [Compound 1, 3-[3-(1-butyn-1-yl)-5-chlorophenyl]-1-[(2-chloro-5-thiazolyl)methyl]-2-hydroxy-9-methyl-4-oxo-4H-pyrido[1,2-a]pyrimidinium inner salt], the mortality at 50 ppm in data set [1], in data set [2] and in data set [3] was at least 80% in each case.
For the compound `CCC#Cc1cccc(-c2c([O-])[n+](Cc3cnc(Cl)s3)c3c(C)cccn3c2=O)c1` [Compound 2, 3-[3-(1-butyn-1-yl)phenyl]-1-[(2-chloro-5-thiazolyl)methyl]-2-hydroxy-9-methyl-4-oxo-4H-pyrido[1,2-a]pyrimidinium inner salt], the mortality at 50 ppm in data set [1], in data set [2] and in data set [3] was at least 80% in each case.
On to `COc1cc(C#CC2CC2)cc(-c2c([O-])[n+](Cc3cnc(Cl)s3)c3c(C)cccn3c2=O)c1` [Compound 4, 1-[(2-chloro-5-thiazolyl)methyl]-3-[3-(2-cyclopropylethynyl)-5-methoxyphenyl]-2-hydroxy-9-methyl-4-oxo-4H-pyrido[1,2-a]pyrimidinium inner salt], for which the mortality at 50 ppm in data set [1], in data set [4], in data set [2] and in data set [3] was at least 80% throughout.
For `Cc1cc(C#CC(C)C)cc(-c2c([O-])[n+](Cc3cnc(Cl)s3)c3c(C)cccn3c2=O)c1` [Compound 7, 1-[(2-chloro-5-thiazolyl)methyl]-2-hydroxy-9-methyl-3-[3-methyl-5-(3-methyl-1-butyn-1-yl)phenyl]-4-oxo-4H-pyrido[1,2-a]pyrimidinium inner salt], the mortality at 50 ppm in data set [1], in data set [4], in data set [2] and in data set [3] was at least 80% throughout.
As to `Cc1cc(C#CC2CC2)cc(-c2c([O-])[n+](Cc3cnc(Cl)s3)c3c(C)cccn3c2=O)c1` [Compound 11, 1-[(2-chloro-5-thiazolyl)methyl]-3-[3-(2-cyclopropylethynyl)-5-methylphenyl]-2-hydroxy-9-methyl-4-oxo-4H-pyrido[1,2-a]pyrimidinium inner salt], the mortality at 50 ppm in data set [1], in data set [4], in data set [2] and in data set [3] was at least 80% throughout.
As for `Cc1cccn2c(=O)c(-c3cc(C#CC4CC4)cc(C(C)C)c3)c([O-])[n+](Cc3cnc(Cl)s3)c12` [Compound 14], the mortality at 50 ppm in data set [2] and in data set [3] was at least 80% in each case.
For `COc1cc(C#CC(C)C)cc(-c2c([O-])[n+](Cc3cnc(Cl)s3)c3c(C)cccn3c2=O)c1` [Compound 18], the mortality at 50 ppm in data set [2] and in data set [3] was at least 80% in each case.
For the compound `Cc1cccn2c(=O)c(-c3cc(F)cc(C#CC(C)C)c3)c([O-])[n+](Cc3cnc(Cl)s3)c12` [Compound 21], the mortality at 50 ppm in data set [4], in data set [2] and in data set [3] was at least 80% each time.
In turn, `Cc1cccn2c(=O)c(-c3cc(C#CC(C)C)cc(C(F)(F)F)c3)c([O-])[n+](Cc3cnc(Cl)s3)c12` [Compound 26] came in with a mortality at 50 ppm in data set [4] of at least 80%.
`Cc1cccn2c(=O)c(-c3cc(F)cc(C#CC4CC4)c3)c([O-])[n+](Cc3cnc(Cl)s3)c12` [Compound 29]: the mortality at 50 ppm in data set [2] is at least 80%.
For `Cc1cccn2c(=O)c(-c3cc(Cl)cc(C#CC4CC4)c3)c([O-])[n+](Cc3cnc(Cl)s3)c12` [Compound 35], the mortality at 50 ppm in data set [2] and in data set [3] was at least 80% in each case.
With `Cc1cccn2c(=O)c(-c3cccc(C#CC4CC4)c3)c([O-])[n+](Cc3cnc(Cl)s3)c12` [Compound 37, 1-[(2-chloro-5-thiazolyl)methyl]-3-[3-(2-cyclopropylethynyl)phenyl]-2-hydroxy-9-methyl-4-oxo-4H-pyrido[1,2-a]pyrimidinium inner salt], the mortality at 50 ppm in data set [1], in data set [4], in data set [2] and in data set [3] was at least 80% each time.
With `Cc1cccn2c(=O)c(-c3cccc(C#CC(C)C)c3)c([O-])[n+](Cc3cnc(Cl)s3)c12` [Compound 44, 1-[(2-chloro-5-thiazolyl)methyl]-2-hydroxy-9-methyl-3-[3-(3-methyl-1-butyn-1-yl)phenyl]-4-oxo-4H-pyrido[1,2-a]pyrimidinium inner salt], the mortality at 50 ppm in data set [1], in data set [4], in data set [2] and in data set [3] was at least 80% in each case.
For the compound `Cc1cccn2c(=O)c(-c3cc(Cl)cc(C#Cc4ccccc4)c3)c([O-])[n+](Cc3cnc(Cl)s3)c12` [Compound 47], the mortality at 50 ppm in data set [4] and in data set [3] was at least 80% in each case.
On to `CCOc1cc(C#CC2CC2)cc(-c2c([O-])[n+](Cc3cnc(Cl)s3)c3c(C)cccn3c2=O)c1` [Compound 51, 1-[(2-chloro-5-thiazolyl)methyl]-3-[3-(2-cyclopropylethynyl)-5-ethoxyphenyl]-2-hydroxy-9-methyl-4-oxo-4H-pyrido[1,2-a]pyrimidinium inner salt], for which the mortality at 50 ppm in data set [1], in data set [2] and in data set [3] was at least 80% throughout.
For the compound `CC#Cc1cccc(-c2c([O-])[n+](Cc3cnc(Cl)s3)c3c(C)cccn3c2=O)c1` [Compound 61], the mortality at 50 ppm in data set [1], in data set [4] and in data set [3] was at least 80% throughout.
Take `Cc1ccc(-c2c([O-])[n+](Cc3cnc(Cl)s3)c3c(C)cccn3c2=O)cc1C#CC(C)C` [Compound 86]: the mortality at 50 ppm in data set [1], in data set [4], in data set [2] and in data set [3] was at least 80% throughout.
